Publication PMC7649969, “Pyrazolyl-pyrimidones inhibit the function of human solute carrier protein SLC11A2 (hDMT1) by metal chelation” (RSC Medicinal Chemistry, 2020)
Each block holds one compound with its values, some of them ahead of it.

Experiments:
hDMT1 = target: T1, hDMT1 (Homo sapiens, UniProt P49281); experiment: 55Fe2+ uptake in Xenopus laevis oocytes overexpressing hDMT1; type: cell-based; parameters: DsRED; expressed in transfected cells; host or cells: HEK293T (ATCC CRL-3216), transient transfection with Lipofectamine 2000; details: compound 10 μM, 55Fe2+ 20 μM
T1 sequence (P49281 1-568): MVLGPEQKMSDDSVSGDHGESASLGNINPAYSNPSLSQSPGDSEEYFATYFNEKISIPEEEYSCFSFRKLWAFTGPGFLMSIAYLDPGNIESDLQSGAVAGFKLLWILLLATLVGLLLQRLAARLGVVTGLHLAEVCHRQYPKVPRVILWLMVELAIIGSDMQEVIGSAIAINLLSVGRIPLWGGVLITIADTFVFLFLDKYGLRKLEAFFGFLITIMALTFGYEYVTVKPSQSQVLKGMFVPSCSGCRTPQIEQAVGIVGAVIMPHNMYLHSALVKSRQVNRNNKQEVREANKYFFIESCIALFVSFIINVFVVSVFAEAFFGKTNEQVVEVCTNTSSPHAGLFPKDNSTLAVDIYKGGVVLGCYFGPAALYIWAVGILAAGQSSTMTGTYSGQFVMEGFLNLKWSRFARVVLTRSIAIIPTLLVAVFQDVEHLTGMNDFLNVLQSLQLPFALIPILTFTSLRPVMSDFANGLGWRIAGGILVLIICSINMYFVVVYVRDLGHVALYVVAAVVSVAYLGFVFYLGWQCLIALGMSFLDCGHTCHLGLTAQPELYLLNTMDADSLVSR
Protocol: Fig. 3 Characterization of Fe^2+ transport inhibition by 1 and 13 in X. laevis oocytes (collected from frogs under license number BE60/18 conceded by the Veterinärdienst des Kantons BE, Sekretariat Tierversuche). (a) Upper panel: Average ^55Fe^2+-uptake (20 μM) by hDMT1-expressing and non-injected oocytes in the absence and the presence of the indicated compounds (10 μM). Data was normalized to ^55Fe^2+-uptake (pmol min^–1) in the absence of compounds represented as mean ± SD (16–29 oocytes). Lower panel: Net uptake of ^55Fe^2+ (20 μM) by hDMT1 in the absence and the presence of the indicated compounds (10 μM). For each batch of oocytes, uptake values were corrected for unspecific iron uptake in non-injected oocytes. Data were normalized to the mean iron uptake by hDMT1 WT (pmol min^–1) and represented as mean ± SD (14–34 oocytes). (b and c) Electrophysiology. […] For each trace, recorded currents were corrected for the background currents observed without substrate. (b) Representative traces recorded with hDMT1 injected oocytes (upper panel) and non-injected oocytes (lower panel). […] Statistical differences were assessed using T-test or Mann–Whitney U test (Fe^2+-uptake by hDMT1 WT vs. non-injected oocytes or vs. compound); p > 0.05 = ns; p < 0.001 = ***. […]

[1] = solubility noted at HPLC purity determination; type: physicochemical
Protocol: Table S3: Purity of the final compounds.
Compound Retention time Purity [%] HPLC
aMethod A: in 2.2 min from 100 % A to 10 0% D, then staying at 100 % D. Method B: in 7.5 min from 10 0% A to 100 % D,

[2] = calcein quenching (competition) assay to detect Fe2+ chelation; details: pH 5.5, 2 μM Fe2+, 1 μM calcein
[3] = isothermal titration calorimetry with Cd2+; type: binding; details: pH 7.4, 25 °C, read-out: apparent dissociation constant KD

- inhibition of radioactive iron uptake in oocytes (hDMT1): totally inhibited
SMILES: N=C(N)SCc1cccc2c1oc1c(CSC(=N)N)cccc12 [Compound 1, reference compound]

- solubility in water and acetonitrile [1]: not soluble in water and acetonitrile
SMILES: Cc1nn(-c2ccccn2)c(O)c1C(=O)Nc1cccc(C(F)(F)F)c1 [Compound 3, reference compound]

- Kd [3]: 6.4 µM
- inhibition at 10 µM (hDMT1; read-out: inhibition of radioactive iron uptake in oocytes): 50%
SMILES: Cc1cc(=O)[nH]c(-n2nc3c(c2C)CCCC3)n1 [Compound 13]
- iron chelation in calcein competition assay [2]: significant level of iron chelation
